Twelve compounds from PubChem BioAssay (NCI) can be followed below.

Among the test systems are LXFL 529 NSCLC; SN12C renal; KM20L2 colon; SNB-78 CNS; MOLT-4 leukemia; RXF 393 renal; OVCAR-4 ovarian; HOP-92 NSCLC; DMS 114 small cell lung; DMS 273 small cell lung; HS 578T breast.
Experiment in all cases: NCI anticancer screen, dose series, 48 h

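Assay format: 96-well plates, 48-hour exposure. GI50 = concentration required for 50% inhibition of growth. TGI is the concentration that stops growth completely.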 Some results are limits rather than exact numbers.

`CCOC(=O)/C(C1=N[C@H](C(=O)OCC)CS1)=C(\C)O`: the TGI in the assay with LXFL 529 NSCLC, in the assay with SN12C renal, with KM20L2 colon, with SNB-78 CNS, with MOLT-4 leukemia and with RXF 393 renal was > 100 µM each time. Also, in the assay with OVCAR-4 ovarian, the TGI is > 100 µM.

As to `CC1=C(C(=O)Nc2ccc([N+](=O)[O-])cc2)C(c2ccco2)C(C(=O)Nc2ccc([N+](=O)[O-])cc2)=C(C)N1`, the TGI was 56.8 µM in the assay with HOP-92 NSCLC; > 100 µM in the assay with LXFL 529 NSCLC; > 100 µM in the assay with SN12C renal; 43.2 µM in the assay with DMS 114 small cell lung; 60 µM with KM20L2 colon; 78.8 µM in the assay on SNB-78 CNS. In addition, the values for the TGI in the assay with MOLT-4 leukemia, with RXF 393 renal and in the assay with OVCAR-4 ovarian were 52.5 µM, 60.3 µM and 46.7 µM, respectively.

For the compound `O=C(O)CN(c1ccc(Cl)cc1)S(=O)(=O)c1ccccc1`, the TGI with HOP-92 NSCLC, in the assay on DMS 273 small cell lung, in the assay with LXFL 529 NSCLC, in the assay with SN12C renal, with KM20L2 colon and in the assay with MOLT-4 leukemia was > 100 µM throughout. The TGI in the assay on RXF 393 renal and in the assay on OVCAR-4 ovarian was > 100 µM throughout.

For `Cc1cc(NC(=O)C2c3ccccc3C(=O)N(CC(C)C)C2c2cccs2)no1` (stereo unspecified), the GI50 is 18.7 µM in the assay on HOP-92 NSCLC; > 100 µM in the assay with SN12C renal; 43.1 µM with MOLT-4 leukemia; 27.5 µM with RXF 393 renal; 86.7 µM in the assay on HS 578T breast; 31.3 µM in the assay on OVCAR-4 ovarian. The TGI in the assay with HOP-92 NSCLC was 78.2 µM; in the assay with SN12C renal, > 100 µM; in the assay on MOLT-4 leukemia it was > 100 µM; in the assay with RXF 393 renal, > 100 µM; with HS 578T breast, > 100 µM; in the assay with OVCAR-4 ovarian it was > 100 µM.

As to `CC(=O)c1ccc(Nc2cc(-n3ccnc3)nc3ccccc23)cc1`, the GI50 with HOP-92 NSCLC was 4.15 µM; with SN12C renal, 45.8 µM; in the assay on MOLT-4 leukemia it was 10.7 µM; in the assay with RXF 393 renal, 26 µM; in the assay with HS 578T breast, 33.4 µM; in the assay on OVCAR-4 ovarian, > 100 µM. Moreover, the TGI in the assay on HOP-92 NSCLC was 29.4 µM; in the assay with SN12C renal, > 100 µM; with MOLT-4 leukemia, 58.1 µM; with RXF 393 renal, 76.8 µM; in the assay with HS 578T breast it was > 100 µM; with OVCAR-4 ovarian, > 100 µM.

As for `COc1ccc(N(C)c2nc(C)nc3ccccc23)cc1`, the GI50 in the assay with HOP-92 NSCLC, in the assay with SN12C renal, in the assay on MOLT-4 leukemia, in the assay on RXF 393 renal, with HS 578T breast and in the assay with OVCAR-4 ovarian was < 0.01 µM each time. Besides, the TGI was 4.94 µM with HOP-92 NSCLC; > 100 µM in the assay on SN12C renal; > 100 µM in the assay on MOLT-4 leukemia; > 100 µM in the assay on RXF 393 renal; > 100 µM in the assay on HS 578T breast; > 100 µM in the assay on OVCAR-4 ovarian.

With `C[C@H]1[C@H](OC(=O)CCC(=O)O)O[C@@H]2O[C@]3(C)CC[C@H]4[C@H](C)CC[C@@H]1[C@@]24OO3`, the GI50 was 0.214 µM in the assay with HOP-92 NSCLC; 0.777 µM in the assay on SN12C renal; 0.308 µM in the assay with MOLT-4 leukemia; 0.953 µM in the assay with RXF 393 renal; 0.986 µM with HS 578T breast; 1.28 µM in the assay with OVCAR-4 ovarian. Besides, the TGI in the assay on HOP-92 NSCLC was 2.38 µM; with SN12C renal it was > 48.9 µM; in the assay on MOLT-4 leukemia it was 16.5 µM; in the assay on RXF 393 renal, 33 µM; in the assay on HS 578T breast, 36.9 µM; in the assay on OVCAR-4 ovarian, 28.1 µM.

With `CC1(C)CC(=O)C2=C(C1)NC(SSC1=C(C#N)C(c3ccccc3)C3=C(CC(C)(C)CC3=O)N1)=C(C#N)C2c1ccccc1` (stereo unspecified), the GI50 with HOP-92 NSCLC is 29 µg/mL; in the assay on SN12C renal, 23.5 µg/mL; in the assay with MOLT-4 leukemia, 37.7 µg/mL; in the assay with RXF 393 renal, 25.7 µg/mL; in the assay on HS 578T breast, 30.5 µg/mL; with OVCAR-4 ovarian, 23.6 µg/mL. In addition, the TGI is 51 µg/mL with HOP-92 NSCLC; 43.7 µg/mL in the assay on SN12C renal; 104 µg/mL in the assay on MOLT-4 leukemia; 47 µg/mL in the assay on RXF 393 renal; 68.1 µg/mL in the assay with HS 578T breast; 44.8 µg/mL in the assay on OVCAR-4 ovarian.

As for `O=C(Nc1n[nH]c2nc(-c3ccco3)c(Br)cc12)C1CC1`, the GI50 with HOP-92 NSCLC is > 25 µM; with SN12C renal, > 25 µM; in the assay with MOLT-4 leukemia, > 25 µM; in the assay with RXF 393 renal, 4.89 µM; in the assay with HS 578T breast, > 25 µM; in the assay on OVCAR-4 ovarian it was > 25 µM. Also, the TGI in the assay on HOP-92 NSCLC, in the assay on SN12C renal, with MOLT-4 leukemia, in the assay with RXF 393 renal, in the assay with HS 578T breast and with OVCAR-4 ovarian was > 25 µM in each case.

Consider `Cc1ccc(S(=O)(=O)N/N=C/C(Br)=C(/Br)C(=O)O)cc1`, for which the TGI came out at 39.6 µM with HOP-92 NSCLC; 25.6 µM with SN12C renal; 3.51 µM in the assay on MOLT-4 leukemia; 5.17 µM in the assay on RXF 393 renal; 45.2 µM in the assay with HS 578T breast; 19.7 µM in the assay with OVCAR-4 ovarian.

Take `Cc1ccc(-c2c(C#N)c(N)nc(N3CCOCC3)c2C#N)o1`: the GI50 in the assay on HOP-92 NSCLC was 23.6 µM; in the assay with SN12C renal it was 41.6 µM; in the assay with MOLT-4 leukemia, 61.9 µM; in the assay on RXF 393 renal, 40.7 µM; in the assay on HS 578T breast, 39.2 µM; with OVCAR-4 ovarian, 55.5 µM. The TGI in the assay on HOP-92 NSCLC, with SN12C renal, with MOLT-4 leukemia, in the assay on RXF 393 renal, in the assay with HS 578T breast and in the assay on OVCAR-4 ovarian was > 100 µM throughout.

Take `COC(=O)[C@]12CC[C@@H](C)[C@H](C)[C@@H]1C1=CC[C@@H]3[C@@]4(C)CC(=O)[C@H](O)[C@@]5(C)COC(=C45)C[C@@]3(C)[C@]1(C)CC2`: the GI50 in the assay on HOP-92 NSCLC was 14.3 µM; with SN12C renal, 19 µM; in the assay with MOLT-4 leukemia, 18.7 µM; in the assay with RXF 393 renal it was 15.2 µM; in the assay on HS 578T breast, 18.4 µM; in the assay on OVCAR-4 ovarian, 17.1 µM. Moreover, the TGI in the assay on HOP-92 NSCLC was determined as 29.1 µM; with SN12C renal, 39.2 µM; in the assay on MOLT-4 leukemia, 39.1 µM; with RXF 393 renal, 31.4 µM; in the assay with HS 578T breast, 45 µM; with OVCAR-4 ovarian it was 36 µM.
